What was measured:
[1] = Inhibition of Very late antigen 4/vascular cell adhesion molecule 1 inhibition activity in an ELISA assay
[2] = Inhibition of Very late antigen 4/vascular cell adhesion molecule 1 activity in ELISA assay, at 10 nM concentration
Integrin alpha-4/beta-1 = Integrin alpha-4/beta-1 (Homo sapiens, UniProt P05556+P13612); assay: Inhibition of Very late antigen 4 of Ramos cell adhesion to vascular cell adhesion molecule 1; format: cell-based
Integrin alpha-4/beta-1, sequence (P05556 whole entry): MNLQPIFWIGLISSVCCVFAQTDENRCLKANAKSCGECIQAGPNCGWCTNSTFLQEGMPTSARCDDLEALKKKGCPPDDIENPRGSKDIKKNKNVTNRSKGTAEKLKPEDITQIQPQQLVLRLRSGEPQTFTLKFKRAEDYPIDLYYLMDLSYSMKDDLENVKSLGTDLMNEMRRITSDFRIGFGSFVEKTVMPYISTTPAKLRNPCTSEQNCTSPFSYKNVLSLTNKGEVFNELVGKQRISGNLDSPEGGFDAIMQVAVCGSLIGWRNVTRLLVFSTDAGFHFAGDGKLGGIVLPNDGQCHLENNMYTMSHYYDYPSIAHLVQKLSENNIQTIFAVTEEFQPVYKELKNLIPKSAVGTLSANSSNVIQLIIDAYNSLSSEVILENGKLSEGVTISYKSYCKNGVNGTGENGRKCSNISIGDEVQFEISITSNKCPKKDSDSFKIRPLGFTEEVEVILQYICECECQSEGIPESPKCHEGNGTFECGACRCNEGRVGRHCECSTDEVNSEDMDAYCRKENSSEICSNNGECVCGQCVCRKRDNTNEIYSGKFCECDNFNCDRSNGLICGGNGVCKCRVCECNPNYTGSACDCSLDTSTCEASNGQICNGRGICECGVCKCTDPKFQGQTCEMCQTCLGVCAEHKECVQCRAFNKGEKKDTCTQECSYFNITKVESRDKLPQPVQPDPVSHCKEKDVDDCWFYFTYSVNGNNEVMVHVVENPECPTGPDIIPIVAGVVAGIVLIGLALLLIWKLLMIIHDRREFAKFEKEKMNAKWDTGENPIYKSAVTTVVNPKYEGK
Integrin alpha-4/beta-1, sequence (P13612 whole entry): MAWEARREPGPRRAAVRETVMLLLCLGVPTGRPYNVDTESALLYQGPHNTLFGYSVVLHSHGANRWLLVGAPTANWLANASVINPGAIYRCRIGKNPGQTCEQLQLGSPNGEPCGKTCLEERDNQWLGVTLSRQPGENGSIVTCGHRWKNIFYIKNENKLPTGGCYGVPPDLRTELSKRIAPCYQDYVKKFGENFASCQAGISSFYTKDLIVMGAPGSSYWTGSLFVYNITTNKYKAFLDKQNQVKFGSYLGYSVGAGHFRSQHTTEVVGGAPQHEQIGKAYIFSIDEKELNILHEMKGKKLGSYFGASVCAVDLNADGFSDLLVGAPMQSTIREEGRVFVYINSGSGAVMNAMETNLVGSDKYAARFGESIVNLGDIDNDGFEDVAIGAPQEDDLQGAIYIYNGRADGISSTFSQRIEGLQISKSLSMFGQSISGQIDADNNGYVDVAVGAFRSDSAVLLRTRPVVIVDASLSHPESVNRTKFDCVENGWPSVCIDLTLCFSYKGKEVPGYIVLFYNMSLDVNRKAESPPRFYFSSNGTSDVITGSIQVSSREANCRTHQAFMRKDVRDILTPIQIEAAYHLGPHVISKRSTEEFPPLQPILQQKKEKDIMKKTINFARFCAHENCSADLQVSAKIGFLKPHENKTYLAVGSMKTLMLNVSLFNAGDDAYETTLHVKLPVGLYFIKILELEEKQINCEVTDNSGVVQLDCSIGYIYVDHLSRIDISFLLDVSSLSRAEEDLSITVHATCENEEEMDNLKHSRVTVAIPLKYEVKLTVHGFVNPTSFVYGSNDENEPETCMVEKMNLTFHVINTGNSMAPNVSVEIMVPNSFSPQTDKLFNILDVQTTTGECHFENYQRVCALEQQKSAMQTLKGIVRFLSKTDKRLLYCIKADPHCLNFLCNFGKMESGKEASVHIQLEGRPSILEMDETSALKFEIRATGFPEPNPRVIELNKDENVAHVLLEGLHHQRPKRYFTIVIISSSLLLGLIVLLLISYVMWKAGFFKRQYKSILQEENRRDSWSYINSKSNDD

Compound | IC50 [1] [nM] | inhibition [2] [%] | IC50 (Integrin alpha-4/beta-1) [nM]
CC1(C(=O)N[C@@H](Cc2ccc(NC(=O)c3ccnc4ccccc34)cc2)C(=O)O)CC1(Cl)Cl (some centres undefined) | 3 | 69 | –
O=C(N[C@@H](Cc1ccc(NC(=O)c2ccnc3ccccc23)cc1)C(=O)O)c1ccccc1[N+](=O)[O-] | 4.7 | 73 | –
O=C(Nc1ccc(C[C@H](NC(=O)C2(c3ccccc3)CCCC2)C(=O)O)cc1)c1cccnc1Oc1ccccc1 | 6.1 | – | 2400
Cc1cc(C)c(C(=O)N[C@@H](Cc2ccc(NC(=O)c3ccnc4ccccc34)cc2)C(=O)O)c(C)c1 | – | 45 | –
O=C(N[C@@H](Cc1ccc(NC(=O)c2ccnc3ccccc23)cc1)C(=O)O)c1cccnc1Cl | 6.6 | 61 | –
O=C(Nc1ccc(C[C@H](NC(=O)C2(c3ccccc3)CC2)C(=O)O)cc1)c1ccnc2ccccc12 | – | 19 | –
Cc1cccc(C)c1C(=O)N[C@@H](Cc1ccc(NC(=O)c2c(Cl)cccc2Cl)cc1)C(=O)O | 1.2 | – | 81
O=C(Nc1ccc(C[C@H](NC(=O)C2(c3ccccc3)CCCC2)C(=O)O)cc1)c1ccnc2ccccc12 (stereo in doubt; 46) [listing 1 of 2 here] | 3.4 | – | –
O=C(Nc1ccc(C[C@H](NC(=O)C2CCCCC2)C(=O)O)cc1)c1ccnc2ccccc12 | – | 37 | –
Cc1noc(C)c1C(=O)N[C@@H](Cc1ccc(NC(=O)c2ccnc3ccccc23)cc1)C(=O)O | – | 46 | –
COc1ccc(C2(C(=O)N[C@@H](Cc3ccc(NC(=O)c4ccnc5ccccc45)cc3)C(=O)O)CCCCC2)cc1 | 1.2 | 77 | –
O=C(Nc1ccc(C[C@H](NC(=O)C2(c3ccccc3)CCCC2)C(=O)O)cc1)c1nccc2ccccc12 | 9.8 | – | 1300
O=C(Nc1ccc(C[C@H](NC(=O)C2(c3ccccc3)CCCC2)C(=O)O)cc1)c1ccnc2ccccc12 (stereo in doubt; 56) | 2.7 | – | 590
O=C(Nc1ccc(C[C@H](NC(=O)C2(c3ccc(Cl)cc3)CCCC2)C(=O)O)cc1)c1ccnc2ccccc12 | 6.4 | 53 | –
CC1(C)C(C(=O)N[C@@H](Cc2ccc(NC(=O)c3ccnc4ccccc34)cc2)C(=O)O)C1(C)C | – | 33 | –
N#CC1(C(=O)N[C@@H](Cc2ccc(NC(=O)c3ccnc4ccccc34)cc2)C(=O)O)CCCC1 | 7.6 | 64 | –
Cc1ccc(C2(C(=O)N[C@@H](Cc3ccc(NC(=O)c4ccnc5ccccc45)cc3)C(=O)O)CCCC2)cc1 | 9.1 | 63 | –
O=C(N[C@@H](Cc1ccc(NC(=O)c2ccnc3ccccc23)cc1)C(=O)O)c1ccccc1Br | 2.2 | 81 | –
O=C(Nc1ccc(C[C@H](NC(=O)[C@H]2CCC(=O)N2Cc2ccccc2)C(=O)O)cc1)c1c(Cl)cccc1Cl | 0.37 | – | 12
O=C(N[C@@H](Cc1ccc(NC(=O)c2ccnc3ccccc23)cc1)C(=O)O)c1ccccc1Cl | 2.9 | 68 | –
O=C(CCc1ccccc1)N[C@@H](Cc1ccc(NC(=O)c2ccnc3ccccc23)cc1)C(=O)O | – | 12 | –
O=C(Nc1ccc(C[C@H](NC(=O)[C@@H]2CSCN2C(=O)CCc2ccccc2)C(=O)O)cc1)c1ccnc2ccccc12 | 1.9 | 53 | –
C[C@H]1CC[C@@](C)(C(=O)N[C@@H](Cc2ccc(NC(=O)c3ccnc4ccccc34)cc2)C(=O)O)C1(C)C | 2.3 | 51 | –
O=C(Nc1ccc(C[C@H](NC(=O)[C@@H]2CSCN2C(=O)c2ccccc2)C(=O)O)cc1)c1ccnc2ccccc12 | – | 24 | –
CC(=O)N1CCC[C@H]1C(=O)N[C@@H](Cc1ccc(NC(=O)c2ccnc3ccccc23)cc1)C(=O)O | 2 | 61 | –
O=C(Nc1ccc(C[C@H](NC(=O)C2CCCC2)C(=O)O)cc1)c1ccnc2ccccc12 | – | 25 | –

Compound | IC50 [1] [nM] | inhibition [2] [%] | IC50 (Integrin alpha-4/beta-1) [nM]
CCC(C)(C)C(=O)N[C@@H](Cc1ccc(NC(=O)c2ccnc3ccccc23)cc1)C(=O)O | – | 30 | –
O=C(Nc1ccc(C[C@H](NC(=O)C2(c3ccccc3)CCCC2)C(=O)O)cc1)c1ccccc1 | 23 | – | –
O=C(Nc1ccc(C[C@H](NC(=O)C2(c3ccccc3)CCCC2)C(=O)O)cc1)c1ccnc2ccccc12 (stereo in doubt; 46) [listing 2 of 2 here] | – | 68 | –
O=C(N[C@@H](Cc1ccc(NC(=O)c2ccnc3ccccc23)cc1)C(=O)O)C(=O)c1ccccc1 | – | 13 | –
O=C(Nc1ccc(C[C@H](NC(=O)[C@@H]2CCCN2C(=O)c2ccccc2)C(=O)O)cc1)c1ccnc2ccccc12 | – | 18 | –
O=C(N[C@@H](Cc1ccc(NC(=O)c2ccnc3ccccc23)cc1)C(=O)O)c1ccccc1 | – | 19 | –
COc1ccc(C2(C(=O)N[C@@H](Cc3ccc(NC(=O)c4ccnc5ccccc45)cc3)C(=O)O)CCCC2)cc1 | 1.4 | 73 | –
O=C(N[C@@H](Cc1ccc(NC(=O)c2ccnc3ccccc23)cc1)C(=O)O)c1c(F)cccc1F | 1.7 | 64 | –
CCC(C(=O)N[C@@H](Cc1ccc(NC(=O)c2ccnc3ccccc23)cc1)C(=O)O)c1ccccc1 (some centres undefined) | 5.8 | 49 | –
O=C(N[C@@H](Cc1ccc(NC(=O)c2ccnc3ccccc23)cc1)C(=O)O)c1ccccc1F | – | 42 | –
CC(=O)N1CSC[C@H]1C(=O)N[C@@H](Cc1ccc(NC(=O)c2ccnc3ccccc23)cc1)C(=O)O | – | 37 | –
O=C(Nc1ccc(C[C@H](NC(=O)C2(c3ccccc3)CCCCC2)C(=O)O)cc1)c1ccnc2ccccc12 | 5.6 | 67 | –
O=C(Nc1ccc(C[C@H](NC(=O)C2CCC2)C(=O)O)cc1)c1ccnc2ccccc12 | – | 17 | –
O=C(Nc1ccc(C[C@H](NC(=O)[C@@H]2CCCN2C(=O)CCc2ccccc2)C(=O)O)cc1)c1ccnc2ccccc12 | 2.1 | 65 | –
CC1(C(=O)N[C@@H](Cc2ccc(NC(=O)c3ccnc4ccccc34)cc2)C(=O)O)CCCCC1 | 7 | 49 | –
CCCCC(C)(CC)C(=O)N[C@@H](Cc1ccc(NC(=O)c2ccnc3ccccc23)cc1)C(=O)O (some centres undefined) | 8.2 | 49 | –
O=C(Nc1ccc(C[C@H](NC(=O)C23CC4CC(CC(C4)C2)C3)C(=O)O)cc1)c1ccnc2ccccc12 | 2.4 | 72 | –
Cc1cccc(C(=O)N[C@@H](Cc2ccc(NC(=O)c3ccnc4ccccc34)cc2)C(=O)O)c1C | – | 31 | –
CC(C)(C)C(=O)N[C@@H](Cc1ccc(NC(=O)c2ccnc3ccccc23)cc1)C(=O)O | – | 23 | –
O=C(Nc1ccc(C[C@H](NC(=O)C2(c3ccccc3)CCCC2)C(=O)O)cc1)c1c(Cl)cccc1Cl | 1.7 | – | 98
CC(C)C(C(=O)N[C@@H](Cc1ccc(NC(=O)c2ccnc3ccccc23)cc1)C(=O)O)c1ccccc1 (some centres undefined) | 4.6 | 73 | –
O=C(Nc1ccc(C[C@H](NC(=O)C2CC2)C(=O)O)cc1)c1ccnc2ccccc12 | – | 12 | –
O=C(Nc1ccc(C[C@H](NC(=O)C2(c3ccccc3)CCCC2)C(=O)O)cc1)c1ccccc1C(F)(F)F | 10 | – | –
O=C(Nc1ccc(C[C@H](NC(=O)C2CCc3ccccc3C2)C(=O)O)cc1)c1ccnc2ccccc12 (some centres undefined) | – | 15 | –
Cc1cccc(C)c1C(=O)N[C@@H](Cc1ccc(NC(=O)c2ccnc3ccccc23)cc1)C(=O)O | 2.5 | 74 | –

Source: ChEMBL document CHEMBL1135157, “Focused library approach for identification of new N-acylphenylalanines as VCAM/VLA-4 antagonists” (Bioorg Med Chem Lett, 2002)
